Results from patent US5688798A, “Pyrimidine compounds” (Hoffmann-La Roche Inc., priority 1995, dated 1997).

What follows are molecules tested against T1, dopamine D4 receptor (Homo sapiens, UniProt P21917) (assay: binding behaviour at the dopamine D4 receptor, [3H]-spiperone displacement in D4-CHO cell membranes). Details: not given.
T1 construct: expressed in transfected cells; host or cells: CHO (Chinese Hamster Ovary) cells, D4-CHO, crude membranes
T1 sequence (P21917 1-419): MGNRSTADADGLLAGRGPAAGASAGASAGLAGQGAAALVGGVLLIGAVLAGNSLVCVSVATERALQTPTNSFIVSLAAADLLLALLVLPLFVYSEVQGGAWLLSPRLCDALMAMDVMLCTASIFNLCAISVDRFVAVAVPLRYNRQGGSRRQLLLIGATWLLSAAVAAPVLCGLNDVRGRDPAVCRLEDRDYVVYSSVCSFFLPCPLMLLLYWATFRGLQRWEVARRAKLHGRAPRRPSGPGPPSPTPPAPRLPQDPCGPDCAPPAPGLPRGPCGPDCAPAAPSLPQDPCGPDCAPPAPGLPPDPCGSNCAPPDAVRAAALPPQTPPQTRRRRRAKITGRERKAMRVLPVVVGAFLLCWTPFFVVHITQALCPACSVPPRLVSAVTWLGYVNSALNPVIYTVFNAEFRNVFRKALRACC
Description: The compounds were characterized by their binding behaviour at the D4 receptor.
CHO cells (Chinese Hamster Ovary) were used in the test. Crude membranes were isolated by ultracentrifugation from D4 -CHO and D2 -CHO cells and were stored at -80° C. After thawing and homogenizing in a buffer solution (50 mM Tris, 1 mM EDTA, 5 mM KCl, 1.5 mM CaCl2, 4 mM MgCl2, pH 7.4) they were incubated at room temperature for 90 minutes with 200 pM [3H]-spiperone and an increasing concentration (1×10^-11 M to 1×10^-4 M) of the test compound. A non-specific binding was established by incubating in the presence of 1×10^-5 M (+)-butaclamol. The unbound radioligand was removed by filtration through a GF/C glass filter and the bound radioactivity was determined by scintillation in a Packard TopCount.
It was determined using :^3 H-spiperone. The calculation of the value was effected with ligand.

| Structure (SMILES) | Ki |
| --- | --- |
| Cc1ncc(CN2CC=C(c3ccccc3)CC2)c(N)n1 [Example 14, 5-(4-Phenyl-3,6-dihydro-2H-pyridin-1-ylmethyl)-2-methyl-pyrimidin-4-ylamine] | 8.3 nM |
| Cc1ncc(CN2CC=C(c3ccc(F)cc3)CC2)c(N)n1 [Example 15, 5-[4-(4-Fluoro-phenyl)-3,6-dihydro-2H-pyridin-1-ylmethyl]-2-methyl-pyrimidin-4-ylamine] | 9.3 nM |
| Cc1ncc(CN2CC=C(c3ccc(Cl)cc3)CC2)c(N)n1 [Example 16, 5-[4-(4-chloro-phenyl)-3,6-dihydro-2H-pyridin-1-ylmethyl]-2-methyl-pyrimidin-4-ylamine] | 4.7 nM |
| COc1ccc(C2=CCN(Cc3cnc(C)nc3N)CC2)cc1 [Example 17, 5-[4-(4-Methoxy-phenyl)-3,6-dihydro-2H-pyridin-1-ylmethyl]-2-methyl-pyrimidin-4-ylamine] | 5.4 nM |
| Cc1ncc(CN2CCC3=C(CCCC3)C2)c(N)n1 [Example 24, 5-(3,4,5,6,7,8-Hexahydro-1H-isoquinolin-2-ylmethyl)-2-methyl-pyrimidin-4-ylamine] | 7.8 nM |
| Nc1ncc(CN2CC=C(c3ccccc3)CC2)c(N)n1 [Example 42, 5-(4-Phenyl-3,6-dihydro-2H-pyridin-1-ylmethyl)-pyrimidine-2,4-diamine] | 14 nM |

Same assay, conditions: [3H]-spiperone 200 pM; crude membranes of D4-CHO cells; room temperature, 90 minutes, pH 7.4; non-specific binding with 1×10^-5 M (+)-butaclamol; read-out: Affinity to dopamine D4 receptors, Ki

| Structure (SMILES) | Ki |
| --- | --- |
| Cc1ncc(CN2CCN(c3ccc(Cl)cc3)CC2)c(N)n1 [Example 3, 5-[4-(4-Chloro-phenyl)-piperazin-1-ylmethyl]-2-methyl-pyrimidin-4-ylamine] | 33 nM |
| Cc1ncc(CN2CCN(c3cccc(Cl)c3)CC2)c(N)n1 [Example 7, 5-[4-(3-chloro-phenyl)-piperazin-1-ylmethyl]-2-methyl-pyrimidin-4-ylamine] | 28 nM |
| Cc1ncc(CN2CCc3cc(-c4ccccc4)ccc3C2)c(N)n1 [Example 19, 2-Methyl-5-(6-phenyl-3,4-dihydro-1H-isoquinolin-2-ylmethyl)-pyrimidin-4-ylamine] | 0.4 nM |
| Cc1ncc(CN2CCc3ccc(-c4ccccc4)cc3C2)c(N)n1 [Example 21, 2-Methyl-5-(7-phenyl-3,4-dihydro-1H-isoquinolin-2-ylmethyl)-pyrimidin-4-ylamine] | 6.2 nM |
| Cc1ncc(CN2CCc3ccc(OCc4ccccc4)cc3C2)c(N)n1 [Example 22, 5-(7-benzyloxy-3,4-dihydro-1H-isoquinolin-2-ylmethyl)-2-methyl-pyrimidin-4-ylamine] | 23 nM |
| Cc1ncc(CN2CC=C(CCc3ccccc3)CC2)c(N)n1 [Example 28, 2-Methyl-5-(4-phenethyl-3,6-dihydro-2H-pyridin-1-ylmethyl)-pyrimidin-4-ylamine] | 1.3 nM |
| Cc1ncc(CN2CC=C(/C=C/c3ccccc3)CC2)c(N)n1 [Example 29, (E)-2-Methyl-5-(4-styryl-3,6-dihydro-2H-pyridin-1-ylmethyl)-pyrimidin-4-ylamine] | 0.9 nM |
| CCCc1ncc(CN2CCN(c3ccccc3OC)CC2)c(N)n1 [Example 33, 5-[4-(2-Methoxy-phenyl)-piperazin-1-ylmethyl]-2-propyl-pyrimidin-4-ylamine] | 14 nM |
| COc1ccccc1N1CCN(Cc2cnc(N)nc2N)CC1 [Example 41, 5-[4-(2-Methoxy-phenyl)-piperazin-1-ylmethyl]-pyrimidine-2,4-diamine] | 30 nM |
